Measured values: patent US9061994B1, “Materials and methods useful to induce vacuolization, cell death, or a combination thereof” (The University of Toledo, priority 2011, dated 2015)
Entries after “also recorded” stand apart in the source; their conditions may differ. Where two headings read alike, the source gives them in different places.

How the values were obtained:
Type in all cases: cell-based, human
[1] = system: U251 glioblastoma cells; test: Trypan blue dye-exclusion viability assay; details: for cell viability, in words: 10 μM, 2 days; for viability at 10 µM: Homo sapiens, U-251, 48 h, each compound at 10 μM for 2 days, mean ± SD of three cultures
Protocol: To directly compare the effects of different compounds on cell viability, the trypan blue dye-exclusion assay was utilized to distinguish live (unstained) from dead (blue) cells. U251 cells were seeded in 35 mm diameter dishes at a density of 100,000 cells/dish. Twenty-four hours later, test compounds were added in fresh medium at a final concentration of […] received an equivalent volume of vehicle (DMSO). […] At the end of the incubation, floating and adherent cells were combined and collected by centrifugation. Cells were washed with Hank's balanced salt solution (HBSS) and incubated with 0.2% trypan blue solution (Sigma, St. Louis, Mo.) for 5 min at room temperature. The percentage of dead cells was determined by light microscopy using a hemocytometer. Three separate cultures were assayed for each compound.
Cells were seeded in 35 mm dishes and treated for 48 h with compounds at a final concentration of […] blue dye-exclusion assays were performed as described in the methods. Values are the mean±SD of separate assays performed on three parallel cultures.

[2] = system: U251 glioblastoma cells; test: Cell morphology / vacuolization by phase-contrast microscopy
[3] = system: U251 glioblastoma cells; test: Sulforhodamine B (SRB) growth inhibition assay; details: for GI50: Homo sapiens; for growth inhibitory (GI) activity, in words: 48 h SRB, Table 1, Table 2 (FIG. 64), FIG. 63
Protocol: Cells experiencing methuosis initially undergo extreme cytoplasmic vacuolization which can be readily assessed by phase contrast microscopy. As viability is compromised (usually between 24-48 h), the cells detach from the culture surface and lose membrane integrity. […] Although methuosis can occur in a broad spectrum of human tumor cell lines, SAR studies were carried out with U251 glioblastoma cells. Therefore, this cell line was used in the present evaluation.
Total protein in adherent cells was measured by the sulforhodamine B (SRB) colorimetric assay, following standard procedures for anticancer drug screening used by the U.S. National Cancer Institute. […] On the day after plating, four wells were assayed to establish a pre-drug (time-0) baseline. Test compounds were diluted as described above and added to the remaining wells. The medium and compounds were replenished after 24 hr. SRB assays were performed at a 48 h endpoint as described, using a SpectraMax Plus 384 plate reader (Molecular Devices, Sunnyvale, Calif.) to determine absorbance at 515 nm.
Cells were seeded in 96-well plates as described in the methods. After 24 h, each compound was added at the indicated concentrations and SRB assays were performed after an additional 48 h. Each point represents the mean±SD of values from four wells. The dotted line on each graph indicates the average absorbance of four wells sampled at time-0 (i.e., the time that the compounds were added).
The human U251 glioblastoma cell line was obtained from the DCT Tumor Repository (National Cancer Institute, Fredrick, Md.). […] All test compounds were dissolved in DMSO and serially diluted in DMSO so that the desired final drug concentrations could be achieved by making a 1/1000 dilution into the culture medium. One day after plating, four wells were assayed to establish a pre-drug (time-0) baseline. At the same time, fresh medium containing test compounds was added to the remaining wells. Control wells received DMSO alone. SRB assays were performed at a 48 h endpoint. To minimize the impact of potential variations in stability among the compounds, medium with test compound was replenished after the first 24 h.

[4] = system: U251 glioblastoma cells; test: SAR comparison of methuosis induction (vacuolization, MTT viability, colony formation) versus MIPP; details: 10 μM, morphology 24 h and 48 h, MTT 48 h, colony formation (FIGS. 36, 48)
Text: Analogs based on the α,β-unsaturated ketone core were designed from Claisen-Schmidt condensations between indole-3-carboxaldehydes and aromatic ketones. Such aldol condensations are known to proceed well employing secondary amines as catalysts. Initially, the orientation of the pyridine nitrogen was investigated.

[5] = concentration not singled out ([…] and 10 μM or as in figure)

| Compound | viability at 10 µM [1] [%] | cell morphology / vacuolization ([2]; 10 μM) | GI50 ([3]; U-251, 48 h, read-out: GI50) [µM] | methuosis-inducing activity compared with compound 2 (MIPP) [4] | also measured |
| --- | --- | --- | --- | --- | --- |
| CCCc1[nH]c2ccc(OC)cc2c1/C=C/C(=O)c1ccncc1 [107b, trans-3-(5-methoxy-2-propylindol-3-yl)-1-(4-pyridinyl)-2-propen-1-one] | 83.9 ± 2.3 | extensively vacuolated | 15.3 | – | cell viability, in words [1]: only minimally affected |
| COc1ccc2[nH]c(C(C)C)c(/C=C/C(=O)c3ccncc3)c2c1 [107c, trans-3-(2-isopropyl-5-methoxyindol-3-yl)-1-(4-pyridinyl)-2-propen-1-one] | 78.8 ± 1.1 | extensively vacuolated | > 20 | – | cell viability, in words [1]: only minimally affected |
| COc1ccc2[nH]c(CC(C)C)c(/C=C/C(=O)c3ccncc3)c2c1 [107d, trans-3-(2-isobutyl-5-methoxyindol-3-yl)-1-(4-pyridinyl)-2-propen-1-one] | 87.4 ± 1.5 | extensively vacuolated | 16.6 | – | cell viability, in words [1]: only minimally affected |
| CCCCOc1ccc2[nH]c(C)c(/C=C/C(=O)c3ccncc3)c2c1 [402d, trans-3-(5-butoxy-2-methylindole-3-yl)-1-(4-pyridinyl)-2-propen-1-one] | – | – | – | – | cell morphology / vacuolization [2, 5]: produced much fewer and smaller vacuoles and had little effect on cell density; growth inhibitory (GI) activity, in words ([3]; U251): markedly reduced; also recorded: complete lack of GI activity |
| Cc1[nH]c2ccc(N)cc2c1/C=C/C(=O)c1ccncc1 [402g, trans-3-(5-amino-2-methylindol-3-yl)-1-(4-pyridinyl)-2-propen-1-one] | – | did cause vacuolization after 48 h | – | – | growth inhibitory (GI) activity, in words ([3]; U251): no GI activity in the concentration range tested |
| NCc1ccc2[nH]cc(/C=C/C(=O)c3ccncc3)c2c1 [402i, trans-3-(5-aminomethylindol-3-yl)-1-(4-pyridinyl)-2-propen-1-one] | – | – | – | – | cell morphology / vacuolization [2, 5]: completely inactive in both growth inhibition and vacuolization assays; growth inhibitory (GI) activity, in words ([3]; U251): completely inactive in both growth inhibition and vacuolization assays |
| O=C(/C=C/c1c[nH]c2ccccc12)c1ccccc1 [compound 9, trans-3-(1H-indol-3-yl)-1-phenyl-2-propen-1-one] | – | – | – | relatively ineffective at inducing methuosis compared with MIPP | – |
| O=C(/C=C/c1c[nH]c2ccccc12)c1ccccn1 [compound 10, trans-3-(1H-indol-3-yl)-1-(2-pyridinyl)-2-propen-1-one] | – | – | – | relatively ineffective at inducing methuosis compared with MIPP | – |
| O=C(/C=C/c1c[nH]c2ccccc12)c1cccnc1 [compound 11, trans-3-(1H-indol-3-yl)-1-(3-pyridinyl)-2-propen-1-one] | – | – | – | relatively ineffective at inducing methuosis compared with MIPP | – |
| COc1ccc2[nH]cc(/C=C/C(=O)c3ccncc3)c2c1 [compound 13, trans-3-(5-methoxy-1H-indol-3-yl)-1-(4-pyridinyl)-2-propen-1-one] | 91.2 ± 0.7 | extensively vacuolated | 18.6 | – | cell viability, in words [1]: only minimally affected |
| O=C(/C=C/c1c[nH]c2ccc(O)cc12)c1ccncc1 [compound 15, trans-3-(5-hydroxy-1H-indol-3-yl)-1-(4-pyridinyl)-2-propen-1-one] | – | – | – | greatly reduced activity of the compound in all of the assays | – |
| COc1ccc2[nH]cc(/C=C/C(=O)c3cccnc3)c2c1 [compound 16, trans-3-(5-methoxy-1H-indol-3-yl)-1-(3-pyridinyl)-2-propen-1-one] | – | – | – | Loss of activity | – |
| COc1ccc2[nH]cc(/C=C/C(=O)c3cnccn3)c2c1 [compound 17, trans-3-(5-methoxy-1H-indol-3-yl)-1-(pyrazine)-2-propen-1-one] | – | – | – | Loss of activity | – |
| COc1ccc2c(c1)c(/C=C/C(=O)c1ccncc1)cn2C [compound 20, trans-3-(5-methoxy-1-methyl-Indol-3-yl)-1-(4-pyridinyl)-2-propen-1-one] | – | – | – | induced some cytoplasmic vacuolization but had modest effects on cell viability | – |
| O=C(/C=C/c1c[nH]c2ccc(O)cc12)c1ccncc1 [compound 21, trans-3-(5-hydroxy-1H-indol-3-yl)-1-(4-pyridinyl)-2-propen-1-one] | – | – | – | marked reduction in activity compared to the 5-methoxy compound 19 | – |
| CCc1[nH]c2ccc(OC)cc2c1/C=C/C(=O)c1ccncc1 [compound 107a, trans-3-(2-ethyl-5-methoxyindol-3-yl)-1-(4-pyridinyl)-2-propen-1-one] | 34.6 ± 1.1 | morphological effects indistinguishable from those observed with the same concentration of MOMIPP | 3.2 | – | cell viability, in words [1]: substantial loss of cell viability; GI50 ([3]; U-251, U251, dose-response curves repeated six more times (Table 1 footnote g), read-out: GI50, means (±SD) for all seven determinations): 2.8 µM; growth inhibitory (GI) activity, in words ([3]; U251): not statistically different from the MOMIPP |
| COc1ccc2[nH]c(C)c(/C=C/C(=O)c3cccnc3)c2c1 [meta-MOMIPP, trans-3-(5-methoxy-2-methylindol-3-yl)-1-(3-pyridinyl)-2-propen-1-one] | 96.2 ± 1.3 | did not accumulate vacuoles | 16.9 | – | – |
| trans-3-[5-((4-carboxyphenyl)-methoxy)-1H-Indol-3-yl)]-1-(4-pyridinyl)-2-propen-1-one [compound 27] | – | – | – | neither compound 26 nor compound 27 induced methuosis | – |
| trans-3-[5-((4-methylbenzoate)methoxy)-1H-Indol-3-yl)]-1-(4-pyridinyl)-2-propen-1-one [compound 26] | – | – | – | neither compound 26 nor compound 27 induced methuosis | – |
